Measured values: patent US20210214375A1 (LUNDBECK LA JOLLA RESEARCH CENTER, INC., priority 2017, published 2021)
Where two headings read alike, the source gives them in different places.

Molecular target: T1, MAGL (Homo sapiens, UniProt Q99685)
T1 construct: Proteomes (human prefrontal cortex or cell membrane fractions); from tissue
T1 sequence (Q99685 1-303): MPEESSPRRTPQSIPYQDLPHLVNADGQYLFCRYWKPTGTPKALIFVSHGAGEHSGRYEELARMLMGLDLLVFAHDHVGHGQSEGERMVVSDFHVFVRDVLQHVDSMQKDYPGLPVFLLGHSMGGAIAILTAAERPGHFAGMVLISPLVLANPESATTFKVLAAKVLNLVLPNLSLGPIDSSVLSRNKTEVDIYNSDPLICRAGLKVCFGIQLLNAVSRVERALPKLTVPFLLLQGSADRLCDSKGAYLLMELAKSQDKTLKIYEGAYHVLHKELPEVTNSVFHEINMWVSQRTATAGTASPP
Experiment: In vitro competitive activity-based protein profiling (gel-based, FP-Rh or HT-01 probe)
Assay type: biochemical
Description: Compounds are tested to assess their MAGL and serine hydrolase activity using the following in vitro and in vivo assays.
Proteomes (human prefrontal cortex or cell membrane fractions) (50 μL, 1.0 mg/mL total protein concentration) were preincubated with varying concentrations of inhibitors at 37° C. After 30 min, FP—Rh or HT-01 (1.0 μL, 50 μM in DMSO) was added and the mixture was incubated for another 30 min at room temperature. Reactions were quenched with SDS loading buffer (15 μL-4×) and run on SDS-PAGE.

[1] = PC3 proteome, read-out: IC50 MGLL PC3 (Human)
[2] = PFC (prefrontal cortex) proteome
[3] = PFC (prefrontal cortex) proteome, read-out: IC50 MGLL PFC (Human)

Row | IC50 [1] | % Inh MGLL PFC (Human, μM) [2] | IC50 [3] | Structure (SMILES)
1 | < 0.1 µM | ### (### is ≥ 75%) | < 0.1 µM | O=C(O)CN1CCN(c2cc(CN3CCCC34CCN(C(=O)OC(C(F)(F)F)C(F)(F)F)CC4)cc(C(F)(F)F)c2)CC1 [Example 2, 2-(4-(3-((8-(((1,1,1,3,3,3-Hexafluoropropan-2-yl)oxy)carbonyl)-1,8-diazaspiro[4.5]decan-1-yl)methyl)-5-(trifluoromethyl)phenyl)piperazin-1-yl)acetic acid]
2 | < 0.1 µM | ### (### is ≥ 75%) |  | O=C(O)C1CCN(Cc2cc(Cl)cc(C(=O)N3CCCC34CCN(C(=O)OC(C(F)(F)F)C(F)(F)F)CC4)c2)CC1 [Example 11, 1-(3-Chloro-5-(8-(((1,1,1,3,3,3-hexafluoropropan-2-yl)oxy)carbonyl)-1,8-diazaspiro[4.5]decane-1-carbonyl)benzyl)piperidine-4-carboxylic acid]
3 | < 0.1 µM |  |  | N#Cc1ccc(C(=O)N2CCC3(CCN(C(=O)OC(C(F)(F)F)C(F)(F)F)CC3)C2)cc1C(F)(F)F [Example 12, 1,1,1,3,3,3-Hexafluoropropan-2-yl 2-(4-cyano-3-(trifluoromethyl)benzoyl)-2,8-diazaspiro[4.5]decane-8-carboxylate]
4 | < 0.1 µM |  |  | O=C(O)c1cc(CN2CC3(CCN(C(=O)OC(C(F)(F)F)C(F)(F)F)CC3)C2)ccc1C(F)(F)F [Example 21, 5-((7-(((1,1,1,3,3,3-Hexafluoropropan-2-yl)oxy)carbonyl)-2,7-diazaspiro[3.5]nonan-2-yl)methyl)-2-(trifluoromethyl)benzoic acid]
5 | < 0.1 µM |  |  | CC1(C(=O)O)CN(c2cc(CN3CC4(CCN(C(=O)OC(C(F)(F)F)C(F)(F)F)CC4)C3)cc(C(F)(F)F)c2)CCO1 (stereo not shown) [Example 22, 4-(3-((7-(((1,1,1,3,3,3-Hexafluoropropan-2-yl)oxy)carbonyl)-2,7-diazaspiro[3.5]nonan-2-yl)methyl)-5-(trifluoromethyl)phenyl)-2-methylmorpholine-2-carboxylic acid]
6 | < 0.1 µM |  |  | CN(Cc1ccc(C(F)(F)F)cc1-c1nnn[nH]1)C1(C)CCN(C(=O)OC(C(F)(F)F)C(F)(F)F)CC1 [Example 24, 1,1,1,3,3,3-Hexafluoropropan-2-yl 4-((2-(1H-tetrazol-5-yl)-4-(trifluoromethyl)benzyl)(methyl)amino)-4-methylpiperidine-1-carboxylate]
7 | < 0.1 µM | ### (### is ≥ 75%) |  | CC1(OCc2cc(CN3CCC(C(=O)O)CC3)cc(C(F)(F)F)c2)CCN(C(=O)OC(C(F)(F)F)C(F)(F)F)CC1 [Example 25, 1-(3-(((1-(((1,1,1,3,3,3-Hexafluoropropan-2-yl)oxy)carbonyl)-4-methylpiperidin-4-yl)oxy)methyl)-5-(trifluoromethyl)benzyl)piperidine-4-carboxylic acid]
8 | < 0.1 µM | ### (### is ≥ 75%) | < 0.1 µM | CN(Cc1ccc(C(F)(F)F)cc1N1CCN(CC(=O)O)CC1)C1(C)CCN(C(=O)OC(C(F)(F)F)C(F)(F)F)CC1 [Example 26, 2-(4-(2-(((1-(((1,1,1,3,3,3-Hexafluoropropan-2-yl)oxy)carbonyl)-4-methylpiperidin-4-yl)(methyl)amino)methyl)-5-(trifluoromethyl)phenyl)piperazin-1-yl)acetic acid]
9 | < 0.1 µM |  | < 0.1 µM | CN(Cc1ccc(C(F)(F)F)cc1N1CC2CC1CN2CC(=O)O)C1(C)CCN(C(=O)OC(C(F)(F)F)C(F)(F)F)CC1 (stereo not shown) [Example 27, 2-(5-(2-(((1-(((1,1,1,3,3,3-Hexafluoropropan-2-yl)oxy)carbonyl)-4-methylpiperidin-4-yl)(methyl)amino)methyl)-5-(trifluoromethyl)phenyl)-2,5-diazabicyclo[2.2.1]heptan-2-yl)acetic acid]
10 | < 0.1 µM |  |  | O=C(O)C1CN(c2cc(CN3CC4(CCN(C(=O)OC(C(F)(F)F)C(F)(F)F)CC4)C3)cc(C(F)(F)F)c2)CCO1 (stereo not shown) [Example 100, 4-(3-((7-(((1,1,1,3,3,3-Hexafluoropropan-2-yl)oxy)carbonyl)-2,7-diazaspiro[3.5]nonan-2-yl)methyl)-5-(trifluoromethyl)phenyl)morpholine-2-carboxylic acid]
11 | < 0.1 µM |  |  | O=C(O)C1CCN(c2cc(C(F)(F)F)ccc2CN2CC3(CCN(C(=O)OC(C(F)(F)F)C(F)(F)F)CC3)C2)C1 (stereo not shown) [Example 101, 1-(2-((7-(((1,1,1,3,3,3-Hexafluoropropan-2-yl)oxy)carbonyl)-2,7-diazaspiro[3.5]nonan-2-yl)methyl)-5-(trifluoromethyl)phenyl)pyrrolidine-3-carboxylic acid]
12 | < 0.1 µM |  |  | O=C(O)C1CCN(c2cc(C(F)(F)F)ccc2CN2CC3(CCN(C(=O)OC(C(F)(F)F)C(F)(F)F)CC3)C2)CC1 [Example 102, 1-(2-((7-(((1,1,1,3,3,3-Hexafluoropropan-2-yl)oxy)carbonyl)-2,7-diazaspiro[3.5]nonan-2-yl)methyl)-5-(trifluoromethyl)phenyl)piperidine-4-carboxylic acid]
13 | < 0.1 µM |  |  | O=C(O)C1COCCN1c1cc(CN2CC3(CCN(C(=O)OC(C(F)(F)F)C(F)(F)F)CC3)C2)cc(C(F)(F)F)c1 (stereo not shown) [Example 103, 4-(3-((7-(((1,1,1,3,3,3-Hexafluoropropan-2-yl)oxy)carbonyl)-2,7-diazaspiro[3.5]nonan-2-yl)methyl)-5-(trifluoromethyl)phenyl)morpholine-3-carboxylic acid]
14 | < 0.1 µM |  |  | O=C(O)[C@@H]1CCCN(c2cc(C(F)(F)F)ccc2CN2CC3(CCN(C(=O)OC(C(F)(F)F)C(F)(F)F)CC3)C2)C1 [Example 107, (R)-1-(2-((7-(((1,1,1,3,3,3-Hexafluoropropan-2-yl)oxy)carbonyl)-2,7-diazaspiro[3.5]nonan-2-yl)methyl)-5-(trifluoromethyl)phenyl)piperidine-3-carboxylic acid]
15 | < 0.1 µM |  |  | O=C(OC(C(F)(F)F)C(F)(F)F)N1CCC2(CC1)CCN(C(=O)c1ccc(C(F)(F)F)c(Cl)c1)C2 [Example 109, 1,1,1,3,3,3-Hexafluoropropan-2-yl 2-(3-chloro-4-(trifluoromethyl)benzoyl)-2,8-diazaspiro[4.5]decane-8-carboxylate]
16 | < 0.1 µM |  |  | O=C(OC(C(F)(F)F)C(F)(F)F)N1CCC2(CC1)CCN(C(=O)c1cc(Cl)cc(C(F)(F)F)c1)C2 [Example 110, 1,1,1,3,3,3-Hexafluoropropan-2-yl 2-(3-chloro-5-(trifluoromethyl)benzoyl)-2,8-diazaspiro[4.5]decane-8-carboxylate]
17 | < 0.1 µM |  |  | O=C(O)[C@H]1CCCN(c2cc(C(F)(F)F)ccc2CN2CC3(CCN(C(=O)OC(C(F)(F)F)C(F)(F)F)CC3)C2)C1 [Example 111, (S)-1-(2-((7-(((1,1,1,3,3,3-hexafluoropropan-2-yl)oxy)carbonyl)-2,7-diazaspiro[3.5]nonan-2-yl)methyl)-5-(trifluoromethyl)phenyl)piperidine-3-carboxylic acid]
18 | < 0.1 µM |  |  | CC1(C(=O)O)CCN(c2cc(C(F)(F)F)ccc2CN2CC3(CCN(C(=O)OC(C(F)(F)F)C(F)(F)F)CC3)C2)C1 (stereo not shown) [Example 115, 1-(2-((7-(((1,1,1,3,3,3-Hexafluoropropan-2-yl)oxy)carbonyl)-2,7-diazaspiro[3.5]nonan-2-yl)methyl)-5-(trifluoromethyl)phenyl)-3-methylpyrrolidine-3-carboxylic acid]
19 | < 0.1 µM |  |  | O=C(OC(C(F)(F)F)C(F)(F)F)N1CCC2(CC1)CCN(C(=O)c1ccc(C(F)(F)F)cc1Cl)C2 [Example 119, 1,1,1,3,3,3-Hexafluoropropan-2-yl 2-(2-chloro-4-(trifluoromethyl)benzoyl)-2,8-diazaspiro[4.5]decane-8-carboxylate]
20 | < 0.1 µM |  |  | O=C(O)C1CCCCN1c1cc(CN2CC3(CCN(C(=O)OC(C(F)(F)F)C(F)(F)F)CC3)C2)cc(C(F)(F)F)c1 (stereo not shown) [Example 120, 1-(3-((7-(((1,1,1,3,3,3-Hexafluoropropan-2-yl)oxy)carbonyl)-2,7-diazaspiro[3.5]nonan-2-yl)methyl)-5-(trifluoromethyl)phenyl)piperidine-2-carboxylic acid]
21 | < 0.1 µM |  |  | CC1(C(=O)O)CCN(c2cc(CN3CC4(CCN(C(=O)OC(C(F)(F)F)C(F)(F)F)CC4)C3)cc(C(F)(F)F)c2)C1 (stereo not shown) [Example 121, 1-(3-((7-(((1,1,1,3,3,3-Hexafluoropropan-2-yl)oxy)carbonyl)-2,7-diazaspiro[3.5]nonan-2-yl)methyl)-5-(trifluoromethyl)phenyl)-3-methylpyrrolidine-3-carboxylic acid]
22 | < 0.1 µM |  |  | O=C(O)C1CCN(c2cc(Cl)ccc2CN2CC3(CCN(C(=O)OC(C(F)(F)F)C(F)(F)F)CC3)C2)CC1 [Example 122, 1-(5-Chloro-2-((7-(((1,1,1,3,3,3-hexafluoropropan-2-yl)oxy)carbonyl)-2,7-diazaspiro[3.5]nonan-2-yl)methyl)phenyl) piperidine-4-carboxylic acid]
23 | 0.1 to 1 µM |  |  | O=C(O)C1CCN(c2cc(F)ccc2CN2CC3(CCN(C(=O)OC(C(F)(F)F)C(F)(F)F)CC3)C2)CC1 [Example 123, 1-(5-Fluoro-2-((7-(((1,1,1,3,3,3-hexafluoropropan-2-yl)oxy)carbonyl)-2,7-diazaspiro[3.5]nonan-2-yl)methyl)phenyl) piperidine-4-carboxylic acid]
24 | 0.1 to 1 µM |  |  | O=C(O)c1ccc(CN2CC3(CCN(C(=O)OC(C(F)(F)F)C(F)(F)F)CC3)C2)cc1C(F)(F)F [Example 131, 4-((7-(((1,1,1,3,3,3-Hexafluoropropan-2-yl)oxy)carbonyl)-2,7-diazaspiro[3.5]nonan-2-yl)methyl)-2-(trifluoromethyl) benzoic acid]
